A word on the logP: it is a log measure of how a compound divides between an organic and an aqueous phase. The low end stands for lower lipophilicity, the high end for higher lipophilicity. As a reminder, the Kd is the constant that tells how readily two partners part at equilibrium.

Consider one molecule from patent US12012394B2, “Alpha-synuclein ligands” (Washington University, priority 2018, dated 2024).

“And” between values parts separate entries of the source, which are not always exact repeats. Equal entries are not always repeated.

One series is described as follows: Experimental Log P. The class given is physicochemical.
A short description of series [1]: MicroPET studies in the brain of nonhuman primate. Type of series: in vivo. The conditions noted are these: male adult cynomolgus macaca. The method, then:
9.93 mCi of [^18F]TZ61-44 was injected into a male adult cynomolgus macaca (9.25 Kg) 10.57 mCi of [^11C]TZ55-107 was injected into was injected into a male adult cynomolgus macaca (9.40 Kg) A simplified reference tissue model (SRTM) and spatially-constraint linear regression algorithm was used to generate R1 and DVR images (FIGS. 18A and 18B).
FIGS. 19A and 19B graphically depict the uptake of labeled TZ55-107 and TZ61-44 in the animals. [^18F]TZ61-44 had highest cortical uptake (SUV) of ˜3.48 at 4 min and the uptake ratio at 4 min versus 120 min reached ˜4.2 (FIG. 19A); [^11C]TZ55-107 had highest cortical uptake of ˜6.40 at 4 min, and the uptake ratio at 4 min versus 120 min reached ˜6.30 (FIG. 19B).

In series [2] the target is Banner PD-seeded α-synuclein fibrils (Homo sapiens (Human), UniProt P37840). As to the kind of experiment: Homologous competition radioligand binding assay, PD-seeded fibrils. The method, then: The equilibrium dissociation constant (Kd) for a series of compounds was determined using direct radioactive competitive binding assays (homologous or heterologous) with either recombinant α-synuclein fibrils or brain tissue homogenates from AD cases.
Recombinant protein was produced in E. coli using protocols based on previously described methods for α-synuclein [Giasson, B. I., et al., “Mutant and wild type human alpha-synucleins assemble into elongated filaments with distinct morphologies in vitro,” 1999, J Biol. Chem., 274:7619-7622; Huang, C., et al., “A new method for purification of recombinant human alpha-synuclein in Escherichia coli,” 2005, Protein Expr Purif, 42:173-177; Yu, L., et al, “Synthesis and in vitro evaluation of á-synuclein ligands,” 2012, Bioorg. Med. Chem., 20:4625-4634] and tau [Li, W., et al., “Characterization of two VQIXXK motifs for tau fibrillization in vitro,” 2006, Biochemistry, 45:15692-15701]. BL21(DE3)RIL E. coli were transformed with a pRK172 bacterial expression plasmid containing the human α-synuclein coding sequence. […]. Overnight cultures were centrifuged at 3,900×g for 10 min at 25° C. and the bacterial pellets were resuspended by gentle vortexing in 20 ml osmotic shock buffer (30 mM Tris-HCl, 2 mM EDTA, 40% Sucrose, pH 7.2) and then incubated at room temperature for 10 min. The cell suspension was then centrifuged at 8,000×g for 10 min at 25° C. and the pellet was resuspended in 22.5 ml cold H2O before adding 9.4 μl 2 M MgCl2 to each tube. The suspension was incubated on ice for 3 min prior to centrifugation at 20,000×g for 15 min at 4° C. After the supernatant was transferred to a fresh tube, streptomycin was added to a final concentration of 10 mg/ml and centrifuged at 20,000×g for 15 min at 4° C. The supernatant from this step was collected and dithiothreitol (DTT) and Tris-HCl pH 8.0 were added to final concentrations of 1 mM and 20 mM respectively, before boiling for 10 min to precipitate heat-sensitive proteins, which were pelleted at 20,000×g for 15 min at 4° C. The supernatant was collected and filtered through a 0.45 μm surfactant-free cellulose acetate filter (Corning) before loading onto a 1 ml DEAE Sepharose column equilibrated in 20 mM Tris-HCl pH 8.0, 1 mM EDTA, and 1 mM DTT. The DEAE column was washed with 20 mM Tris-HCl pH 8.0, 1 mM EDTA, 1 mM DTT before eluting α-synuclein protein in 20 mM Tris-HCl pH 8.0 buffer with 1 mM EDTA, 1 mM DTT and 0.3 M NaCl. Purified α-synuclein protein was dialyzed overnight in 10 mM Tris-HCl pH 7.6, 50 mM NaCl, 1 mM DTT.
Purified recombinant α-synuclein monomer (2 mg/ml) was incubated in 20 mM Tris-HCl, pH 8.0, 100 mM NaCl for 72 h at 37 C with shaking at 1000 rpm in an Eppendorf Thermomixer. […] The concentration of α-synuclein monomer in the supernatant was determined in a BCA protein assay according to the manufacturer's instructions, using a bovine serum albumin (BSA) standard curve. The measured decrease in α-synuclein monomer concentration was used to determine the concentration of fibrils in the 72 h fibril reaction mixture. […]
These direct binding assays used a fixed concentration of either fibrils or PD/AD tissue and the radioligand (e.g., [^18F]28) and varying concentration ranges of corresponding homologous non-radiolabeled standard reference compound. […] Reactions were incubated at 37° C. for 1 h before quantifying bound radioligand. […]

In the series “Experimental Log P”, `COc1ccc(Nc2ccc3cc(OCCF)ccc3n2)cn1` [TZ61-44] returned a logP of 1.97 ± 0.4. The “highest cortical uptake (SUV)” value in series [1] (brain cortex, at 4 min) is about 3.48 SUV. In series [1] (brain cortex), the “uptake ratio at 4 min versus 120 min” value is given as about 4.2. The “blood brain barrier penetration” value in series [1] is listed as “able to penetrate the blood brain barrier”. In addition, the Kd in series [2] (25 nM Banner PD-seeded fibrils) was 5.4 nM and 9.7 nM and 12 nM and 25 nM and 26 nM; in series [2] (75 nM Banner PD-seeded fibrils), 30 nM.
